{
  "source": "patent US9603930B2",
  "about": "“Liquid bendamustine formulation” (Navinta, LLC, priority 2014, dated 2017)",
  "key": {"[1]": {"conditions": "2 months of storage at 25° C.; cited from earlier work"}, "[2]": {"conditions": "polyethylene glycol alone; from U.S. Pat. No. 8,609,707; cited from earlier work"}, "[3]": {"assay": "Solubility of bendamustine in solvents"}},
  "data": [
    {"smiles": "Cl.Cn1c(CCCC(=O)O)nc2cc(N(CCCl)CCCl)ccc21", "values": [
      {"measurement": "stability of the solid on storage", "setting": "[1]", "value": "degrades"}
    ]},
    {"smiles": "Cn1c(CCCC(=O)O)nc2cc(N(CCCl)CCCl)ccc21", "note": "[Bendamustine, 4-[5-[bis(2-chloroethyl)amino]-1-methylbenzimidazol-2-yl]butanoic acid]", "values": [
      {"measurement": "solubility in PEG alone", "setting": "[2]", "value": "poorly soluble"},
      {"measurement": "solubility in glycerin", "setting": "[3]", "value": "very high solubility"}
    ]}
  ]
}
